Experimental data as given in US10028956B2, “Methods of treating various cancers using an AXL/cMET inhibitor in combination with other agents” (Ignyta, Inc., priority 2013, dated 2018).
Marks after values point to notes of the source that are not given here.

Key:
298 kinases = test: Kinome selectivity against 298 kinases; type: biochemical
[1] = tested on: EBC-1 Human NSCLC xenografts; test: Anti-tumor efficacy in EBC-1 NSCLC xenografts; type: in vivo, mice
Source text: The human NSCL cancer cell line, EBC-1 was purchased from ATCC (American Tissue Culture Collection, Manassas, Va.) and cultured in DMEM medium with 10% fetal bovine serum (FBS, Cat# SH3007003, Hyclone Laboratory Inc, Logan, Utah). Female Nu/Nu mice (6-8 weeks, Charles River Laboratory, Wilmington, Mass.) were maintained 5/cage in microisolator units on a standard laboratory diet (Teklad Labchow, Harlan Teklad, Madison, Wis.). Animals were housed under humidity- and temperature-controlled conditions and the light/dark cycle was set at 12-hour intervals. Mice were quarantined at least 1 week prior to experimental manipulation. […] The mice were then monitored daily. […] The length (L) and width (W) of each tumor was measured with a vernier caliper and the mouse body weight was determined every 2-3 days. The tumor volumes were then calculated with the formula of 0.5236*L*W*(L+W)/2. […] Plasma and tumor samples were obtained at 2 hours post final dose at each dose level, and the compound levels in plasma and tumor lysates were measured by LC-MS/MS. The TGI values were calculated at the end of study by comparing the tumor volumes (TV) of each CEP-40783-treatment group with those of vehicle-treated group with the following formula: 1-(the last day TV of compound-treated group/the last day TV of vehicle-treated group).

[2] = tested on: CTG-0159 primary NSCLC human TumorGraft; test: NSCLC TumorGraft model CTG-0159; type: in vivo, mice; conditions: CTG-0159, 14 days
Method: Methods (for the experiments shown in FIGS. 10 and 11) • Female immunocompromised nu/nu mice (Harlan) between 6-9 weeks of age were housed on irradiated papertwist-enriched ⅛″ corncob bedding (Sheperd) in individual HEPA ventilated cages (Innocage® IVC, Innovive USA) on a 12-hour light-dark cycle at 68-74° F. (20-23° C.) and 30-70% humidity. Animals were fed water ad libitum (reverse osmosis, 2 ppm Cl2) and an irradiated Test rodent diet (Teklad 2919) consisting of 19% protein, 9% fat, and 4% fiber. • Tumor Models: Champions TumorGraft models of NSCLC are owned by Champions Oncology. In this study, animals were implanted unilaterally on the right flank with tumor fragments harvested from host animals. […] Erlotinib (manufacturer: OSI Pharmaceuticals; National Drug Code: 50242-062-01; Lot #: US0002) was formulated using 100% PEG-400 as the vehicle according to manufacturer's specifications.
Efficacy measurements: Beginning Day 0, tumor dimensions were measured twice weekly by digital caliper (Fowler Ultra-Cal IV) and data including individual and mean estimated tumor volumes (Mean TV±SEM) were recorded for each group; tumor volume was calculated using the formula TV=width^2×length×0.52. At study completion, percent tumor growth inhibition (% TGI) values were calculated and reported for each treatment group (T) versus control (C) using initial (i) and final (f) tumor measurements by the formula: % TGI=1−Tf−Ti/Cf−C; single agent or combination therapies resulting in a TGI>50 at study completion are considered active in the tested model at the evaluated treatment regimen according to NCI guidelines. […] If the PR persisted until study completion, percent tumor regression (% TR) was determined using the formula: % TR=1−Tf/Ti×100; a mean value was calculated if multiple PR mice occurred in one group. […] Statistical differences in tumor volume were determined using a two-tailed One-Way Analysis of Variance (ANOVA) followed by the Dunett's multiple comparisons test comparing treated groups with control and combinations with standard agent alone when possible. […]

COc1cc2nccc(Oc3ccc(NC(=O)c4cn(C(C)C)c(=O)n(-c5ccc(F)cc5)c4=O)cc3F)c2cc1OC [CEP-40783, 3-(4-Fluorophenyl)-1-isopropyl-2,4-dioxo-1,2,3,4-tetrahydropyrimidine-5-carboxylic acid [4-(6,7-dimethoxyquinolin-4-yloxy)-3-fluorophenyl]-amide]
S90 (fraction of kinases showing >90% inhibition at 1 μM) (298 kinases): 0.04
anti-tumor efficacy (tumor volume) ([1]; 3 mg/kg oral qd): tumor stasis and partial regressions
anti-tumor efficacy (tumor volume) ([1]; 10 mg/kg and 30 mg/kg oral qd): tumor regressions
% Tumor Growth Inhibition ([2]; 10 mg/kg po/qd): 46%*
% Tumor Growth Inhibition ([2]; 30 mg/kg po/qd): 66%*†
